Assays:
[1] = Example 8: 12-week study in obese subjects, efficacy; details: for mean change from baseline to EOT in body weight: 12 weeks
From the text: (§4) This example involved a clinical study of the compound of formula (I), which was a randomized, double-blind, placebo-controlled, parallel group study to evaluate the efficacy of the compound of formula (I) administered twice daily for twelve weeks in obese subjects.
The study had 180 participants. The 180 subjects comprised 59 males and 121 females, 18 to 65 years old, with BMI≧30 kg/m^2 to <40 kg/m^2. The subjects were separated into four arms of 45 subjects, including one arm as placebo. Each test subject received a tablet taken orally over a period of 12 weeks after breakfast and dinner (BID) (specifically, within 180 minutes of the commencement of eating) of 1 mg, 2.5 mg, or 3.5 mg, using one or multiples of tablets of 1 mg and 2.5 mg of the compound of formula (I) to achieve the total dose. Of the total entrants, 40 entrants completed the 1 mg regimen, 42 entrants completed the 2.5 mg regimen, 41 entrants completed the 3.5 mg regimen, and 42 entrants completed the placebo regimen.
This study was designed to investigate the weight loss effect of the compound of formula (I) administered BID for 12 weeks to obese subjects. The effect of the compound of formula (I) on ancillary efficacy measures (e.g., waist circumference, waist-hip ratio, percent body fat, serum lipid parameters, and markers related to glycemic control, obesity, and inflammation) was also evaluated, as was safety. The primary efficacy variable was body weight change from baseline after 12 weeks of treatment.

serum lipid levels = test: Example 5: fixed-dose or escalating doses 12 weeks in hyperlipidemia, efficacy; assay type: in vivo, human; details: for LDL-C level decrease: dose escalation group
Protocol: (§1) Fifty-two Japanese patients with hyperlipidemia (LDL-C between 140 and 220 mg/dL; TG≦400 mg/dL) participated in the study. […] One group received a fixed dose of 2 mg per tablet through the entire study. The other group received escalating doses of 0.5 mg (weeks 1-4), 1 mg (weeks 5-8), and 2 mg (weeks 9-12). For the efficacy analysis, 50 subjects were observed (25 in the fixed-dose group and 25 in the dose escalation group).
(§2) The objective of this study was preliminary evaluation of the efficacy (based on serum lipid levels), safety, and pharmacokinetics of the compound of formula (I) administered orally twice daily after breakfast and supper for 12 weeks as a fixed dose (4 mg/day) or escalating dose (1 mg/day, 2 mg/day and 4 mg/day) regimen in patients with hyperlipidemia.

[2] = Example 1: repeated oral dose study of capsules, safety
Protocol: The subjects were divided into two dosing groups, and within each dosing group, the subjects were divided as follows: 6 subjects received the compound of formula (1) and 3 subjects received placebo. […] Subjects were in a fed condition prior to administration of each capsule.
Each active capsule contained a filling solution and a gelatin solution. The filling solution comprised the compound of formula (I) (5 mg), propylene glycol esters of fatty acids, and dehydrated ethanol. The gelatin solution comprised purified water, gelatin, and anhydrized liquid sorbitol. The filling solution and gelatin solution were prepared individually and combined to form a soft capsule. The placebo capsules were prepared in a similar manner except that the filling solution contained only propylene glycol esters of fatty acids and dehydrated ethanol.

[3] = Example 5: pharmacokinetics; assay type: in vivo, human; details: subjects other than two
Protocol: as §1, §2

LDL-C levels = test: Example 4: 8-week study in hyperlipidemia, efficacy; assay type: in vivo, human
Protocol: (§3) One hundred five Japanese patients with hyperlipidemia (LDL-C between 140 and 220 mg/dL; TG≦400 mg/dL) participated in the study. […] For the efficacy analysis, 95 subjects were observed (0.5 mg BID: 25 subjects, 1 mg BID: 24 subjects, 2 mg BID: 22 subjects, 4 mg BID: 24 subjects).
The objective was to administer the compound of formula (I) orally to hyperlipidemic patients at a dose of 0.5, 1, 2, or 4 mg as capsules twice daily after the morning (e.g., breakfast) and evening meal (e.g., dinner) for eight weeks in order to explore a dose range in which the compound of formula (I) reduced LDL-C levels. In addition, the effects on lipid metabolism, safety, and pharmacokinetics of the compound of formula (I) were evaluated.

[4] = Example 4: 8-week study in hyperlipidemia, safety; assay type: in vivo, human
Protocol: as §3

[5] = Example 7: ascending dose study in obese subjects, pharmacokinetics
Protocol: This example involved a clinical study of the compound of formula (I), which was a randomized, double-blind, placebo-controlled, ascending dose study to evaluate the safety, tolerability and pharmacokinetics/pharmacodynamics of the compound of formula (I) tablets administered twice daily for two weeks in obese subjects.
The subjects were separated into four arms of nine (one with ten) test subjects (which were administered the compound of formula (I)) and three placebo subjects.

[6] = Earlier phase 1 single dose clinical study; assay type: in vivo, human
[7] = Example 8: pharmacokinetics (trough concentrations)
From the text: as §4

Compound: CCOC(=O)C(COC(=O)Cc1ccc(NC(=O)c2ccccc2-c2ccc(C(F)(F)F)cc2)c(C(=O)N(C)C)c1)(C(=O)OCC)c1ccccc1 [compound of formula (I), diethyl 2-((2-(3-(dimethylcarbamoyl)-4-(4′-(trifiuoromethyl)biphenyl-2-ylcarboxamido)phenyl)acetoxy)methyl)-2-phenyl malonate]
- mean change from baseline to EOT in body weight ([1]; 1 mg BID): -0.70 kg
- mean change from baseline to EOT in body weight ([1]; 2.5 mg BID): -1.74 kg
- mean change from baseline to EOT in body weight ([1]; 3.5 mg BID): -2.19 kg
- waist circumference, waist-hip ratio, percent body fat vs placebo ([1]; after 12 weeks): No statistically significant differences
- mean decreases from baseline LDL-C ([1]; after 12 weeks, 3 compound groups): −5.90 to −8.27 mg/dL
- triglyceride levels ([1]; all treatment groups): increased from baseline
- TC and ApoB ([1]; human, in vivo): improvements (reductions)
- weight loss by perilipin gene mutation ([1]; human, in vivo): no differences
- TG level (serum lipid levels; both groups): tended to increase
- LDL-C level decrease (serum lipid levels; Week 10 (4 mg/day)): −7.24%
- LDL-C level decrease (serum lipid levels; Week 12 (4 mg/day)): −7.12%
- LDL-C level maximum decrease (serum lipid levels; fixed-dose group (2 mg BID), Week 2): −6.38%
- LDL-C level change (serum lipid levels; fixed-dose group, after Week 2 through Week 12): −1.96 to −5.98%
- number of adverse events ([2]; 5 mg group): 12
- subjects with adverse events (incidence) ([2]; 5 mg group): 83%
- vitamins A and E ([2]; 15 mg BID group): Decreased
- number of adverse events ([2]; 15 mg group): 32
- subjects with adverse events (incidence) ([2]; 15 mg group): 100%
- subjects with diarrhea ([2]; 15 mg group, of 6 subjects): 6 subjects
- death or serious adverse events ([2]; 5 or 15 mg BID after meals, 14 days, capsules): neither death nor serious adverse events were reported
- incidence of ALT increased ([2]; active group): 17%
- incidence of abdominal discomfort ([2]; active group): 25%
- incidence of anorexia ([2]; active group): 42%
- incidence of diarrhea ([2]; active group): 67%
- incidence of gastrointestinal disorders (SOC) ([2]; active group): 75%
- incidence of investigations (SOC) ([2]; active group): 33%
- incidence of metabolism and nutrition disorders (SOC) ([2]; active group): 42%
- incidence of moderate abdominal discomfort ([2]; active group): 8%
- incidence of moderate diarrhea ([2]; active group): 58%
- incidence of moderate feeling queasy ([2]; active group): 8%
- incidence of moderate stomach discomfort ([2]; active group): 8%
- incidence of stomach discomfort ([2]; active group): 58%
- subjects with adverse events (incidence) ([2]; active group (5 and 15 mg BID), 12 subjects): 92%
- number of adverse events ([2]; active group, 12 subjects): 44
- tolerable dosage ([2]; long-term treatment in outpatients): 5 mg BID
- doses at which diarrhea occurred ([2]; repeated BID administration): ≥ 5 mg
- Cmin of the compound of formula (I) [3]: below the lower limit of quantization
- mean percent change in LDL-C levels at Week 8 from baseline (LDL-C levels; 0.5 mg BID): −4.3%
- mean percent change in LDL-C levels at Week 8 from baseline (LDL-C levels; 1 mg BID): −4.5%
- mean percent change in LDL-C levels at Week 8 from baseline (LDL-C levels; 2 mg BID): −12.2%
- mean percent change in LDL-C levels at Week 8 from baseline (LDL-C levels; 4 mg BID): −12.3%
- ApoB and ApoE levels (LDL-C levels; 2 and 4 mg BID): decreased
- TC levels (LDL-C levels; 2 and 4 mg BID, throughout treatment): decreased
- insulin, hemoglobin Alc, adiponectin, or leptin level (LDL-C levels; in vivo): did not affect
- ApoB48, ApoA-I, ApoA-II, ApoC-II, and ApoC-III levels (LDL-C levels; treatment period): no significant changes
- time course of TG or HDL-C levels (LDL-C levels; treatment period): no definite trend or dose correlation
- incidence of moderate diarrhea ([4]; 0.5 mg BID): 8.0%
- number of adverse events ([4]; 0.5 mg BID): 20
- number of moderate diarrhea events ([4]; 0.5 mg BID): 2
- subjects with adverse events (incidence) ([4]; 0.5 mg BID): 44.0%
- incidence of diarrhea ([4]; 1 mg BID): 15.9%
- incidence of moderate diarrhea ([4]; 1 mg BID): 0.0%
- number of adverse events ([4]; 1 mg BID): 60
- number of diarrhea events ([4]; 1 mg BID): 6
- number of moderate diarrhea events ([4]; 1 mg BID): 0
- subjects with adverse events (incidence) ([4]; 1 mg BID): 75.0%
- incidence of diarrhea ([4]; 2 mg BID): 24.0%
- incidence of moderate diarrhea ([4]; 2 mg BID): 12.0%
- number of adverse events ([4]; 2 mg BID): 51
- number of diarrhea events ([4]; 2 mg BID): 12
- number of moderate diarrhea events ([4]; 2 mg BID): 4
- subjects with adverse events (incidence) ([4]; 2 mg BID): 80.0%
- incidence of diarrhea ([4]; 4 mg BID): 40.7%
- incidence of moderate diarrhea ([4]; 4 mg BID): 29.6%
- number of adverse events ([4]; 4 mg BID): 82
- number of diarrhea events ([4]; 4 mg BID): 21
- number of moderate diarrhea events ([4]; 4 mg BID): 13
- subjects with adverse events (incidence) ([4]; 4 mg BID): 85.2%
- death or serious adverse events ([4]; 0.5-4 mg BID capsules, 8 weeks): neither death nor other serious adverse events occurred
- events of gastrointestinal disorders ([4]; 105 subjects): 117
- events of infections and infestations ([4]; 105 subjects): 11
- events of investigations ([4]; 105 subjects): 49
- events of metabolism and nutrition disorders ([4]; 105 subjects): 7
- events of musculoskeletal, and connective tissue disorders ([4]; 105 subjects): 7
- incidence of gastrointestinal disorders (SOC) ([4]; 105 subjects): 47.6%
- incidence of infections and infestations (SOC) ([4]; 105 subjects): 9.5%
- incidence of investigations (SOC) ([4]; 105 subjects): 31.4%
- incidence of metabolism and nutrition disorders (SOC) ([4]; 105 subjects): 6.7%
- incidence of moderate adverse events ([4]; 105 subjects): 18.1%
- incidence of musculoskeletal, and connective tissue disorders (SOC) ([4]; 105 subjects): 6.7%
- laboratory abnormality ALT, subjects ([4]; 105 subjects): 5.7%
- laboratory abnormality CPK, subjects ([4]; 105 subjects): 6.7%
- laboratory abnormality CRP, subjects ([4]; 105 subjects): 3.8%
- laboratory abnormality IP, subjects ([4]; 105 subjects): 2.9%
- laboratory abnormality γ-GTP, subjects ([4]; 105 subjects): 3.8%
- number of moderate adverse events ([4]; 105 subjects): Twenty-six
- number of adverse events ([4]; all 105 subjects): 213
- subjects with adverse events (incidence) ([4]; all 105 subjects): 71.45%
- fat-soluble vitamins (vitamin A, 25-OH vitamin D, and vitamin E) ([4]; in vivo): no clinically significant changes
- subjects withdrawn from the study treatment because of adverse events ([4]; of 105 subjects): four
- plasma concentrations of the compound of formula (I) ([5]; 1 mg, Day 14): not quantifiable
- time up to which concentrations were quantifiable ([5]; 2.5 mg and 3.5 mg groups, Day 14): up to 5 hr
- subjects with quantifiable concentrations ([5]; 2.5 mg, Day 14): 2 of 8 subjects
- subjects with quantifiable concentrations ([5]; 3.5 mg, Day 14): 7 of 8 subjects
- subjects with quantifiable concentrations ([5]; 5 mg, Day 14): 2 of 3 subjects
- time for which concentrations were quantifiable ([5]; 5 mg, Day 14): at least 6 hr
- plasma concentrations of the compound of formula (I) ([5]; 1 to 5 mg, Day 1): generally below the limit of quantization
- Cmax and AUC0-τ dose proportionality ([5]; 2.5 to 5 mg): approximately dose proportional
- systemic exposure ([5]; BID for 14 days): negligible
- parent/metabolite ratio for AUC0-τ ([5]; all dose levels): less than 0.01
- parent/metabolite ratio for Cmax ([5]; all dose levels): less than 0.03
- oral clearance ([5]; quantifiable dose groups): high oral clearance
- doses at which diarrhea was observed [6]: ≥ 60 mg
- trough concentrations of the compound of formula (I) ([7]; 1 mg BID): not quantifiable
- trough concentrations of the compound of formula (I) ([7]; 2.5 and 3.5 mg BID): quantifiable in a few subjects
